Key:
Type in all cases: cell-based, human
DU145 cells [1] = test: Annexin V-FITC / propidium iodide flow cytometry (apoptosis)
Protocol: (§1) FIG. 9. Effect of compound I-1 at 5 μM on cell cycle and apoptosis. Cells were then harvested by trypsinization. (A) For flow cytometric analysis of cell cycle parameters, cells were fixed, and stained with propidium iodide. Each histogram indicates the percent of cells in G1, S, and G2/M phases of the cell cycle. Data were gated to exclude apoptotic cells for these calculations. (B) For apoptosis detection, cells were incubated with FITC-conjugated Annexin V and propidium iodide. Flow cytometric analysis was performed and the histogram for each sample was split into four quadrants to indicate: viable cells (lower left quadrant), apoptotic cells (lower right quadrant), necrotic cells (upper left quadrant), and necrotic/late apoptotic cells (upper right quadrant).
FIG. 13. Assays to detect apoptosis in DU145 cells. Prostate cancer cells were left untreated (−) or treated with 10 μM compound I-1 or with vehicle (DMSO) for the time indicated in the figure. (A) After treatment, cells were harvest by trypsinization, washed with PBS, and then incubated with FITC-conjugated Annexin V and propidium iodide. Flow cytometric analysis was performed. The histogram for each sample was split into four quadrants to indicate: viable cells (lower left quadrant), apoptotic cells (lower right quadrant), necrotic cells (upper left quadrant), and necrotic/late apoptotic cells (upper right quadrant). (B) After treatment, cells were lysed and total lysates were analyzed for cellular apoptotic markers by immunoblotting using anti-[…] or antibodies specific to the activated form of Caspase-3 (cleaved Caspase-3). Anti-GAPDH-1 antibody was used as loading control. (C) Some cells were harvested by trypsinization, washed with PBS, and total DNA was extracted then analyzed on a 1.8% agarose gel. M indicates DNA size marker (base pairs).
(§2) Flow cytometric assays of cell cycle and cell death. Cells in fresh complete medium were plated (2×10^5 per well) into six-well plates for 18 h. After complete adhesion, cells were treated as indicated in the figures and harvested by trypsinization. For cell cycle distribution, cells were fixed, and stained with propidium iodide using the Cycle Test Plus kit (Becton Dickinson). For cell death detection, cells were stained with Annexin-V-FITC and propidium iodide using the Apoptosis Detection Kit (BD Biosciences), according to the manufacturer's instructions. Cells were then analyzed by flow cytometry using a FACScalibur cytometer (BD Biosciences, Mountain View, Calif.) and FlowJo program (Tree Star, Inc., Ashland, Oreg.).
Compound I-1 promotes cell death by apoptosis. Because prolonged cell cycle arrest can cause induction of cell death, we next investigated the viability of prostate cancer cells treated with compound I-1. To begin, we used the trypan blue exclusion assay, which is based on the principle that live cells will exclude membrane-impermeable dyes such as trypan blue, whereas trypan blue will get inside the dead cells and stain them. […] To determine whether apoptosis (programmed cell death) is the cause of cell death induced by compound I-1, we examined the cells for biochemical and morphological markers of apoptosis. Cells undergoing apoptosis specifically translocate the membrane phospholipid phosphatidylserine (PS) from the inner face of the plasma membrane to the cell surface; therefore, apoptotic cells can be identified by the presence of PS on the cell surface. Detection of PS is achieved by staining with a fluorescent conjugate of Annexin V, a protein that has a high affinity for PS, followed by flow cytometry analysis. Cells are stained in parallel with propidium iodide (PI), which can only enter the cell when the plasma membrane is damaged. This allows early apoptotic cells (positive for PS, but negative for PI) to be distinguished from late apoptotic and necrotic cells (positive for both PS and PI).

DU145 cells [2] = test: Flow cytometric analysis of cell cycle (propidium iodide) in DU145
Protocol: as §1
FIG. 10. Flow cytometric analysis of cell cycle parameters. DU145 prostate cancer cells were incubated for 24 h (A) or for 48 h (B) in the presence of 10 μM compound I-1 or vehicle (DMSO), or without additive (untreated). Cells were then harvested by trypsinization, fixed, and stained with propidium iodide for analysis by flow cytometry. Each histogram indicates the percent of cells in G1, S, and G2/M phases of the cell cycle. Data were gated to exclude apoptotic cells for these calculations. A small population of aneuploid cells with >4n DNA content, which became apparent in the cells treated with compound I-1, is also indicated (percentage underlined).
as §2

PC-3 cells = test: Clonogenic assay in PC-3
Protocol: FIG. 7. Clonogenic assays in prostate cancer cells treated with compound I-1. Prostate cancer cells, DU145 (A) or PC3 (B), were plated at very low density in 6-well plates and incubated 18 h at 37° C. Cells were treated by addition of various concentrations of compound I-1 or with an equivalent volume of vehicle (DMSO), or were left untreated. After 10 days of treatment, cells were washed with cold PBS, fixed with paraformaldehyde, and stained with crystal violet solution.
Clonogenic Assay. Cells in fresh complete medium were plated at very low density (3×10^2 per well) into six-well plates for 18 h. After complete adhesion, cells were treated with compound I-1 by adding directly to the medium to give the concentration indicated in the figures. Cells were allowed to grow until visible colonies formed (10 days). Cell colonies were fixed with 4% paraformaldehyde in PBS (phosphate-buffered saline), stained with 0.25% crystal violet in 25% methanol, washed and air-dried.

## C[C@@H]1CC[C@H]2C3C(O[C@]4([C@]5(O)CC6(C)C(=O)OC5C[C@@]6(C)O)CC[C@@]31O4)[C@H]1O[C@]13CC=CC(=O)[C@]23C (stereo partly shown) [I-1]
DU145 cells [1]; 5 μM, 24 h
  apoptotic population: 5.2%
DU145 cells [1]; 5 μM, 48 h
  apoptotic population: 9.2%
DU145 cells [1]; 5 μM, 72 h
  apoptotic population: 11.5%
DU145 cells [1]; 10 μM, 24 h
  apoptotic population: 7.4%
DU145 cells [1]; 10 μM, 48 h
  apoptotic cell population: 32.3%
DU145 cells [1]; 10 μM, 72 h
  apoptotic cell population: 46.4%
  population of late apoptotic/necrotic cells: 28.4%
DU145 cells [2]; 5 μM
  cell cycle parameters: not perturbed
DU145 cells [2]; 10 μM
  population of aneuploid cells that contain more than 4n DNA: additional peak to the right of the G2/M peak
DU145 cells [2]; 10 μM, 24 h
  fraction of cells in phase: 8%
  proportion of cells in G2/M phases: 49%
  proportion of cells in S phase: 37%
DU145 cells [2]; 10 μM, 48 h
  fraction of cell in G2/M: 66%
  percentage of cells in S phase: decreased
PC-3 cells; 2.5 μM, 10 days
  effect on colony formation: Inhibitory effects
PC-3 cells; 10 days of treatment
  concentration that blocked the capacity of single cancer cells to generate colonies: ≥ 5 µM
